The record followed here is ChEMBL document CHEMBL1153520, “A multivalent approach to the design and discovery of orally efficacious 5-HT4 receptor agonists” (J Med Chem, 2009).

The target in assay [1] is T1, 5-hydroxytryptamine receptor 4 (Homo sapiens, UniProt Q13639). As to the kind of experiment: Displacement of [H]GR-113808 from human 5HT4C receptor expressed in HEK293 cells by liquid scintillation counting. The class given is cell-based.
The species named for the next assay is Homo sapiens. As to the kind of experiment: Selectivity ratio of Ki for human 5HT3A receptor to Ki for human 5HT4C receptor.
The target of assay [2] is T1, 5-hydroxytryptamine receptor 4. As to the kind of experiment: Agonist activity at human 5HT4C receptor expressed in HEK293 cells assessed as accumulation of cAMP by flash plate adenylyl cyclase activation assay. The assay is classed as functional, cell-based.
Assay [3] has the same target. The assay can be described thus: Intrinsic activity at human 5HT4C receptor expressed in HEK293 cells assessed as accumulation of cAMP by flash plate adenylyl cyclase activation assay relative to serotonin. The class given is functional, cell-based.

T1 sequence (Q13639 whole entry): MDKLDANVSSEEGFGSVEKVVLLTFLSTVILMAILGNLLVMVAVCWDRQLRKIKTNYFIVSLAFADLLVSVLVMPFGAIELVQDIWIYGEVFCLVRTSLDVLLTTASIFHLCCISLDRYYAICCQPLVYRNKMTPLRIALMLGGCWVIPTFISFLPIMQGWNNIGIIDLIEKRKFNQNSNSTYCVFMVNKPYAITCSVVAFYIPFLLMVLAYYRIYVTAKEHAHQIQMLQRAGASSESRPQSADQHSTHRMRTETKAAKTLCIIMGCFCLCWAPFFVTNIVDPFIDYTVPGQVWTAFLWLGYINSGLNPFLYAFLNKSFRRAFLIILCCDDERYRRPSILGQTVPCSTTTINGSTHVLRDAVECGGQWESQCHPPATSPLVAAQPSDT

In general, Ki refers to a measure of affinity in units of concentration, obtained from inhibition or displacement. As usually defined, the EC50 is the concentration that produces a half-maximal response. In assay [1], `CC(C)n1c(=O)c(C(=O)N[C@H]2C[C@H]3CC[C@@H](C2)N3CCN2C(=O)c3ccccc3C2=O)cc2ccccc21` had a Ki of 1 µM. In addition, the Ratio Ki in the assay filed under Homo sapiens stood at 55. Further, the concentration giving a half-maximal response (EC50) in assay [2] is 0.0794 µM. In addition, in assay [3], the Intrinsic activity is > 100%.
`CC(C)n1c(=O)c(C(=O)N[C@H]2C[C@H]3CC[C@@H](C2)N3CCS(=O)(=O)O)cc2ccccc21`: in assay [1], the affinity corresponds to a Ki of 1 µM. Moreover, in the assay filed under Homo sapiens, the Ratio Ki was 49. The concentration giving a half-maximal response (EC50) in assay [2] is 0.00631 µM. The Intrinsic activity in assay [3] is > 100%.
For `CC(C)n1c(=O)c(C(=O)N[C@H]2C[C@H]3CC[C@@H](C2)N3CCCCCO)cc2ccccc21` the same measures were 0.0631 µM, 460, 0.0251 µM and > 100%.
For `COc1cc(N)c(Cl)cc1C(=O)NC1CCN(CCCCCCCCN(C)CCc2c[nH]c3ccccc23)CC1` the same measures were 0.00126 µM, 2800, 0.000794 µM and > 100%.
With `CC(C)n1c(=O)c(C(=O)N[C@H]2C[C@H]3CC[C@@H](C2)N3CCCCCN2C(=O)c3ccccc3C2=O)cc2ccccc21`, the affinity in assay [1], expressed as Ki, was 0.0158 µM. Further, the Ratio Ki in the assay filed under Homo sapiens came to 1200. In addition, the EC50 in assay [2] is 0.0251 µM. Also, in assay [3], the Intrinsic activity is > 100%.
In the same order, the values of `CC(C)n1c(=O)n(C(=O)NC2CCNCC2)c2ccccc21` are 1.58 µM, 0.019, 0.316 µM and > 100%.
On to `COc1cc(N)c(Cl)cc1C(=O)NC1CCN(CCCCCCCCS(=O)(=O)O)CC1`, for which, in assay [1], the Ki was 15.8 µM. Moreover, in the assay filed under Homo sapiens, the Ratio Ki came out at 4.3. The EC50 in assay [2] was 1 µM. In addition, the Intrinsic activity in assay [3] was > 100%.
`CC(C)n1c(=O)c(C(=O)N[C@H]2C[C@H]3CC[C@@H](C2)N3CCO)cc2ccccc21` gave a Ki in assay [1] of 0.126 µM. Also, the Ratio Ki in the assay filed under Homo sapiens is 3.2. Further, in assay [2], the EC50 is 0.0316 µM. The Intrinsic activity in assay [3] is > 100%.
On to `CC(C)n1c(=O)c(C(=O)N[C@H]2C[C@H]3CC[C@@H](C2)N3CCCCCCCCN(C)CCc2c[nH]c3ccccc23)cc2ccccc21`, for which, in assay [1], affinity was put at a Ki of 0.00316 µM. Further, the Ratio Ki in the assay listed under Homo sapiens was 2300. In addition, the EC50 in assay [2] is 0.001 µM. Moreover, the Intrinsic activity in assay [3] was > 100%.
Turning to `CC(C)n1nc(C(=O)NC2CCNCC2)c2ccccc21`, the affinity in assay [1] corresponds to a Ki of 0.398 µM. The Ratio Ki in the assay filed under Homo sapiens stood at 0.52. For the same molecule, in assay [2], the EC50 is 0.2 µM. In addition, the Intrinsic activity in assay [3] amounted to 50%.
Consider `CC(C)n1c(=O)c(C(=O)N[C@H]2C[C@H]3CC[C@@H](C2)N3CCCCCN2CCN(S(C)(=O)=O)CC2)cc2ccccc21`, for which the affinity in assay [1] corresponds to a Ki of 0.0158 µM. Further, the Ratio Ki in the assay filed under Homo sapiens turned out to be 2800. Besides, the EC50 in assay [2] was 0.00126 µM. For the same molecule, the Intrinsic activity in assay [3] was > 100%.
As to `CC(C)n1c(=O)c(C(=O)NCC2CCNCC2)cc2ccccc21`, affinity in assay [1] was put at a Ki of 0.794 µM. For the same molecule, the Ratio Ki in the assay filed under Homo sapiens was determined as 1.2. Further, the EC50 in assay [2] was 0.1 µM. The Intrinsic activity in assay [3] was > 100%.
In the same order, the values of `CC(C)n1c(=O)c(C(=O)N[C@H]2C[C@H]3CC[C@@H](C2)N3CCCCCCCCN2CCCCC2)cc2ccccc21` are 0.00316 µM, 9900, 0.00126 µM and 99%.
As for `COc1ccc2[nH]cc(C(=O)N[C@H]3C[C@H]4CC[C@@H](C3)N4)c2c1`, in assay [1], the Ki was 3.16 µM. In the assay listed under Homo sapiens, the Ratio Ki amounted to 1.4. Besides, the EC50 in assay [2] is 2.51 µM. Besides, the Intrinsic activity in assay [3] was 77%.
In the same order, the values of `CC(C)n1c(=O)c(C(=O)N[C@H]2C[C@H]3CC[C@@H](C2)N3CCCCCS(=O)(=O)O)cc2ccccc21` are 1.58 µM, 21, 0.0126 µM and > 100%.
For `COc1cc(N)c(Cl)cc1C(=O)NC1CCN(CCCCCN2CCCCC2)CC1` the same measures were 0.01 µM, 990, 0.00501 µM and > 100%.
In the same order, the values of `COc1cc(N)c(Cl)cc1C(=O)NC1CCN(CCCCCO)CC1` are 0.0631 µM, 110, 0.0158 µM and > 100%.
In assay [1], `CCCCCN1[C@@H]2CC[C@H]1C[C@@H](NC(=O)c1cc3ccccc3n(C(C)C)c1=O)C2` showed a Ki of 0.0631 µM. Besides, in the assay filed under Homo sapiens, the Ratio Ki amounted to 890. In addition, the EC50 in assay [2] was 0.0398 µM. Also, the Intrinsic activity in assay [3] was > 100%.
In the same order, the values of `CC(C)n1c(=O)c(C(=O)N[C@H]2C[C@H]3CC[C@@H](C2)N3CCCCCCCCO)cc2ccccc21` are 0.0501 µM, 1100, 0.0158 µM and > 100%.
In the same order, the values of `COc1ccc2[nH]cc(C(=O)NCC3CCNCC3)c2c1` are 3.98 µM, 1.1, 6.31 µM and 42%.
As to `CC(C)n1c(=O)c(C(=O)N[C@H]2C[C@H]3CC[C@@H](C2)N3CCCCCCCCN2CCN(S(C)(=O)=O)CC2)cc2ccccc21`, the affinity in assay [1] corresponds to a Ki of 0.0158 µM. In addition, the Ratio Ki in the assay filed under Homo sapiens stood at 2100. For the same molecule, the concentration for a half-maximal effect (EC50) in assay [2] was 0.00316 µM. The Intrinsic activity in assay [3] is > 100%.
In the same order, the values of `CCCCCCCCN1CCC(NC(=O)c2cc(Cl)c(N)cc2OC)CC1` are 0.0794 µM, 23, 0.0398 µM and > 100%.
In the same order, the values of `CCN1CCC(NC(=O)c2cc(Cl)c(N)cc2OC)CC1` are 1 µM, 4.2, 0.0794 µM and > 100%.
In the same order, the values of `COc1cc(N)c(Cl)cc1C(=O)NC1CCN(CCCCCCCCO)CC1` are 0.0794 µM, 29, 0.0158 µM and > 100%.
Regarding `COc1cc(N)c(Cl)cc1C(=O)NC1CCN(CCN(C)CCc2c[nH]c3ccccc23)CC1`, in assay [1], the affinity, expressed as Ki, was 0.0398 µM. Besides, the Ratio Ki in the assay filed under Homo sapiens was 290. Further, the EC50 in assay [2] is 0.0158 µM. The Intrinsic activity in assay [3] is > 100%.
The molecule `CC(C)n1c(=O)c(C(=O)N[C@H]2C[C@H]3CC[C@@H](C2)N3CCN(C)CCc2c[nH]c3ccccc23)cc2ccccc21` gave a Ki in assay [1] of 0.0398 µM. Besides, the Ratio Ki in the assay listed under Homo sapiens came to 480. In addition, the EC50 in assay [2] is 0.00126 µM. The Intrinsic activity in assay [3] was determined as 92%.
Molecule `COc1cc(N)c(Cl)cc1C(=O)NCCN1CCNCC1` showed an inhibition constant Ki in assay [1] of 1.26 µM. The Ratio Ki in the assay filed under Homo sapiens was found to be 1.1. The EC50 in assay [2] was 0.501 µM. For the same molecule, the Intrinsic activity in assay [3] is > 100%.
In the same order, the values of `COc1cc(N)c(Cl)cc1C(=O)NC1CCN(CCCCCN2CCN(S(C)(=O)=O)CC2)CC1` are 0.0398 µM, 280, 0.0126 µM and > 100%.
In the same order, the values of `CC(C)n1c(=O)c(C(=O)N[C@H]2C[C@H]3CC[C@@H](C2)N3CCCCCN(C)CCc2c[nH]c3ccccc23)cc2ccccc21` are 0.00316 µM, 6000, 0.000631 µM and > 100%.
For `CC(C)n1c(=O)c(C(=O)N[C@H]2C[C@H]3CC[C@@H](C2)N3CCCCCCCCN2C(=O)c3ccccc3C2=O)cc2ccccc21` the same measures were 0.0316 µM, 120, 0.0501 µM and > 100%.
In assay [1], `COc1cc(N)c(Cl)cc1C(=O)NC1CCN(CCO)CC1` showed a Ki of 0.2 µM. The Ratio Ki in the assay filed under Homo sapiens stood at 1.9. The EC50 in assay [2] is 0.0631 µM. In assay [3], the Intrinsic activity was > 100%.
In the same order, the values of `COc1cc(N)c(Cl)cc1C(=O)NC1CCN(CCCCCCCCN2C(=O)c3ccccc3C2=O)CC1` are 0.0398 µM, 40, 0.00316 µM and 89%.
For `COc1cc(N)c(Cl)cc1C(=O)NC1CCN(CCN2CCCCC2)CC1` the same measures were 0.251 µM, 3.9, 0.1 µM and > 100%.
For `COc1cc(N)c(Cl)cc1C(=O)NC1CCN(CCN2C(=O)c3ccccc3C2=O)CC1` the same measures were 7.94 µM, 13, 0.631 µM and 94%.
`COc1ccc2[nH]cc(C(=O)NC3CCNCC3)c2c1`: in assay [1], the Ki was 3.16 µM. Besides, the Ratio Ki in the assay filed under Homo sapiens came out at 6.7. The Intrinsic activity in assay [3] turned out to be 0%.
Turning to `COc1cc(N)c(Cl)cc1C(=O)NCC1CCNCC1`, the Ki in assay [1] was 0.316 µM. Also, the Ratio Ki in the assay listed under Homo sapiens came to 0.12. Also, in assay [2], the half-maximal effective concentration (EC50) was 0.398 µM. Further, in assay [3], the Intrinsic activity came to 81%.
The molecule `CC(C)n1c(=O)n(C(=O)NCC2CCNCC2)c2ccccc21` gave a Ki in assay [1] of 0.0398 µM. Further, in the assay filed under Homo sapiens, the Ratio Ki worked out at 0.21. In addition, the EC50 in assay [2] was 0.0158 µM. For the same molecule, in assay [3], the Intrinsic activity came out at 92%.
`CCCCCN1CCC(NC(=O)c2cc(Cl)c(N)cc2OC)CC1` had a Ki in assay [1] of 0.1 µM. For the same molecule, in the assay listed under Homo sapiens, the Ratio Ki was 33. In addition, the EC50 in assay [2] was 0.0251 µM. Further, the Intrinsic activity in assay [3] was > 100%.
On to `CC(C)n1nc(C(=O)N[C@H]2C[C@H]3CC[C@@H](C2)N3)c2ccccc21`, for which the affinity in assay [1] corresponds to a Ki of 0.0631 µM. Further, the Ratio Ki in the assay filed under Homo sapiens was 0.092. Besides, in assay [2], the EC50 is 0.0398 µM. The Intrinsic activity in assay [3] worked out at 94%.
Consider `COc1ccc2[nH]cc(C(=O)NCCN3CCNCC3)c2c1`, for which the Ki in assay [1] is 0.316 µM. Further, the Ratio Ki in the assay listed under Homo sapiens came out at 25. The Intrinsic activity in assay [3] came to 0%.
On to `CC(C)n1nc(C(=O)NCC2CCNCC2)c2ccccc21`, for which, in assay [1], the Ki was 0.00794 µM. Besides, the Ratio Ki in the assay listed under Homo sapiens was 3. Further, in assay [3], the Intrinsic activity was determined as 0%.
